{
  "source": "patent US20260108584A1",
  "about": "“TREATMENT OF OBESITY-ASSOCIATED INFLAMMATORY CONDITIONS” (THE UNIVERSITY OF BIRMINGHAM, priority 2023, published 2026)",
  "key": {"[1]": {"tested_on": "leukocyte trafficking", "test": "Therapeutic PEPITEM (last 6 of 12 weeks HFD): leukocyte subsets by flow cytometry", "type": "in vivo, C57BI/6J wild type (WT) mice", "experimental": "(§1) Eight-week-old, male, C57BI/6J wild type (WT) mice were purchased from Charles River and were maintained in a specific pathogen free facility, with free access to food. Environmental conditions were: 21±2° C., 55±10% relative humidity and a 12 hour light-dark cycle. Mice were fed high fat diet (HFD) containing 60% fat (cat no. D12492, Research Diets, INC) for up to 12 weeks. Alzet mini pumps 2006 (Charles River) containing 3.5 mg/ml of PEPITEM (SVTEQGAELSNEER-PEG (352)-Amide; Cambridge Research Biochemicals Limited; Cambridge, UK) or phosphate buffered saline (PBS) were implanted at baseline (prophylactic administration) or following 6 weeks of HFD (therapeutic administration), continuously releasing 0.822 mg of content/week. Body weight was assessed weekly. Intraperitoneal glucose tolerance tests (IPGTT) were assessed at 3, 6, 8, and 12 weeks in mmol/l using Contour XT glucometer as described in Nasteska, D. et al., JCI Insight 6, doi: 10.1172/jci.insight. 140288 (2021). Mice were culled […] blood collected into ethylenediaminetetraacetic acid (EDTA) coated eppendorfs^RTM. The peritoneal cavity was lavaged with 5 mM EDTA, spleen and inguinal lymph nodes were isolated and stored in PBS. Gonadal visceral fat pads and abdominal subcutaneous fat was stored in RPMI 1640 media (Gibco) containing 2% BSA and pancreas was FFPE as described in Nasteska, D. et al (supra).\n(§2) All tissue samples were weighed prior to processing. Fat tissue was broken into pieces, incubated in an enzyme cocktail consisting of 200 μg/ml Collagenase P (Sigma), 800 μg/ml Collagenase Dispase, 100 μg/ml DNase (both Merck) diluted in Roswell Park Memorial Institute medium (RPMI) containing 2% fetal bovine serum (FBS) at 37° C. for 30 min before being passed through 70 UM filter. Samples were washed by centrifugation in RPMI containing 2% FBS at 400 g (g-force) for 10 minutes and the stromal vascular fraction re-suspended in red blood cell (RBC) lysis buffer for 10 minutes. Samples were then washed by centrifugation at 400 g and re-suspended in RPMI containing 2% FBS. The spleen and lymph node were crushed through a […] filter. Spleen, lymph node and blood samples were all incubated in the RBC lysis buffer as described prior to re-suspension in magnetic-activated cell sorting (MACS) buffer. Peritoneal lavage fluid (PLF) were centrifuged at 400 g for 5 minutes and the cells were resuspended in MACS buffer.\n(§3) All samples were blocked with Fc receptor (FcR) blocker (Miltenyi Biotec) prior to staining with the following of antibodies and Zombie Aqua (Biolegend) for 20 minutes at 4° C. prior to washing and fixation with 2% paraformaldehyde (PFA): anti-CD45.2 BV605 (clone 104; Biolegend), anti-CD3 PECy7 (clone 145-2c11), anti-CD4 eFluor450 (clone GK1.5), anti-CD8 PE-TexasRed ^RTM (clone 5H10), anti-CD44 FITC (clone IM7), anti-CD25 AF700 (clone PC61.5), anti-KLRG1 APC-eFluor780 (clone 2F1), anti-CD62L PE (clone MEL-14), anti-CD19-APC (clone 1D3), anti-CD45 APC-CY7 (clone 104), F4/80 FITC (clone BM8), anti-CD11c PE-Cy7 (clone N418), anti-Gp38 PE (clone 8.1.1; all from Thermofisher); anti-CD23 BV421 (clone B3B4), anti-CD93 BV650 (clone AA4.1), anti-CD43 PerCp-Cy5.5 (clone S7), anti-CD21/35 PE (clone 7G6), anti-Siglec F TexasRed^RTM (clone E50-2440), Ly6G APC (clone 1A8; all from BD). Compensation controls were generated using the cells isolated from the spleen. Immediately prior to analysis CountBright beads (Invitrogen) were added and samples were acquired using Fortessa-X20 and data analysed offline using FlowJo^RTM (V-10.2.6) (FIG. 4)."}, "[2]": {"tested_on": "pancreatic islets", "test": "Therapeutic PEPITEM (last 6 of 12 weeks HFD): pancreatic islet immunofluorescence imaging", "type": "in vivo, C57BI/6J wild type (WT) mice", "experimental": "(§4) Eight-week-old, male, C57BI/6J wild type (WT) mice were purchased from Charles River and were maintained in a specific pathogen free facility, with free access to food. Environmental conditions were: 21±2° C., 55±10% relative humidity and a 12 hour light-dark cycle. Mice were fed high fat diet (HFD) containing 60% fat (cat no. D12492, Research Diets, INC) for up to 12 weeks. […] Body weight was assessed weekly. Intraperitoneal glucose tolerance tests (IPGTT) were assessed at 3, 6, 8, and 12 weeks in mmol/l using Contour XT glucometer as described in Nasteska, D. et al., JCI Insight 6, doi: 10.1172/jci.insight. […]\n(§5) Slides were imaged using Zeiss Axioscan 7 Slide Scanner at 20× magnification using the same acquisition parameters for each slide. Images were initially processed with ZEN Software (Black Edition v2.2) into digital arrays, which were subsequently analysed with ImageJ (1.53K). […] Average number of islets and islet area were determined and expressed as number or area/10,000 μm^2 of the whole pancreatic section area, as previously described by Slavin, B et al., Anat. […]"}, "[3]": {"tested_on": "leukocyte trafficking", "test": "Prophylactic PEPITEM, 6 weeks HFD: leukocyte subsets by flow cytometry", "type": "in vivo, C57BI/6J wild type (WT) mice", "experimental": "as §1, §2, §3"}, "[4]": {"tested_on": "J774 murine macrophages cells", "test": "In vitro cytokine analysis, LPS-stimulated J774 cells (ELISA)", "type": "cell-based", "settings": "10 ng ml^−1 PEPITEM 15 minutes pre-treatment, LPS (10 μg ml^−1) 24 h, vs PBS (FIG. 7)", "experimental": "J774 murine macrophages cells were pre-treated with 10 ng ml^−1 PEPITEM (SVTEQGAELSNEER; Cambridge Research Biochemicals Limited; Cambridge, UK) or phosphate buffered saline (PBS—as control) for 15 minutes and then stimulated with LPS (10 μg ml^−1) for 24 h. Cell supernatants were collected and analysed for the protein expression of IL-6 and TNF-α by ELISA."}, "[5]": {"test": "Therapeutic PEPITEM (last 6 of 12 weeks HFD): body weight and IPGTT", "type": "in vivo, C57BI/6J wild type (WT) mice", "experimental": "as §1"}, "[6]": {"test": "Prophylactic PEPITEM, 6 weeks HFD: body weight and IPGTT", "type": "in vivo, C57BI/6J wild type (WT) mice", "experimental": "as §1"}, "[7]": {"tested_on": "pancreatic islets", "test": "Prophylactic PEPITEM, 6 weeks HFD: pancreatic islet immunofluorescence imaging", "type": "in vivo, C57BI/6J wild type (WT) mice", "experimental": "as §4, §5"}},
  "data": [
    {"substance": "PEPITEM [SVTEQGAELSNEER, 14-amino-acid immunopeptide derived from 14.3.3.ζδ]", "values": [
      {"measurement": "CD3+KLRG1+ T-cells numbers in the peritoneal cavity", "setting": "[1]; therapeutic (FIG. 2(H))", "value": "no effect"},
      {"measurement": "number of CD3+KLRG1+ T-cells in the blood", "setting": "[1]; therapeutic (FIG. 2(I))", "value": "lower"},
      {"measurement": "number of age-associated B-cells in the blood", "setting": "[1]; therapeutic (FIG. 2(J))", "value": "lower"},
      {"measurement": "number of neutrophils in the blood", "setting": "[1]; therapeutic (FIG. 2(K))", "value": "lower"},
      {"measurement": "composition of leukocyte subsets in subcutaneous adipose tissue", "setting": "[1]; therapeutic (data not shown)", "value": "no effect"},
      {"measurement": "B-cell numbers in the spleen", "setting": "[1]; therapeutic, vs PBS (FIG. 3(E))", "value": "elevated"},
      {"measurement": "age-associated B-cell numbers in the spleen", "setting": "[1]; therapeutic, vs PBS (FIG. 3(F))", "value": "elevated"},
      {"measurement": "number of CD45+ leukocytes in the spleen", "setting": "[1]; therapeutic, vs control animals (FIG. 3(A))", "value": "increased"},
      {"measurement": "number of CD3+ T-cells in the spleen", "setting": "[1]; therapeutic, vs control animals (FIG. 3(B))", "value": "increased"},
      {"measurement": "number of CD45+ leukocytes in the inguinal lymph node", "setting": "[1]; therapeutic, vs control animals (FIG. 3(C))", "value": "increased"},
      {"measurement": "number of CD3+ T-cells in the inguinal lymph node", "setting": "[1]; therapeutic, vs control animals (FIG. 3(D))", "value": "increased"},
      {"measurement": "number of CD3+ T-cells in the VAT", "setting": "[1]; therapeutic, vs vehicle control (FIG. 2(D))", "value": "significant reduction"},
      {"measurement": "number of CD4+ T-cells in the VAT", "setting": "[1]; therapeutic, vs vehicle control (FIG. 2(E))", "value": "significant reduction"},
      {"measurement": "number of CD3+KLRG1+ T-cells in the VAT", "setting": "[1]; therapeutic, vs vehicle control (FIG. 2(F))", "value": "significant reduction"},
      {"measurement": "macrophage numbers in the peritoneal cavity", "setting": "[1]; therapeutic, vs vehicle control (FIG. 2(G))", "value": "significant reduction"},
      {"measurement": "overall number of islets", "setting": "[2]; vs control mice (FIG. 2(B))", "value": "without affecting"},
      {"measurement": "pancreatic islet size", "setting": "[2]; vs control mice (FIG. 2(C))", "value": "significantly reduced"},
      {"measurement": "number of T-cell subsets, B-cell subsets, neutrophils, eosinophils or macrophages in the blood, inguinal lymph node or spleen", "setting": "[3]; 6 weeks HFD, prophylactic (FIG. 6)", "value": "no effect"},
      {"measurement": "T-cells (CD3+) in visceral adipose tissue", "setting": "[3]; 6 weeks HFD, prophylactic, vs HFD control (FIG. 1(E))", "value": "Significantly fewer"},
      {"measurement": "CD4+ T cells in visceral adipose tissue", "setting": "[3]; 6 weeks HFD, prophylactic, vs HFD control (FIG. 1(F))", "value": "Significantly fewer"},
      {"measurement": "KLRG1+CD3+ T-cells in visceral adipose tissue", "setting": "[3]; 6 weeks HFD, prophylactic, vs HFD control (FIG. 1(G))", "value": "Significantly fewer"},
      {"measurement": "T-cells (CD3+) in peritoneal cavity", "setting": "[3]; 6 weeks HFD, prophylactic, vs HFD control (FIG. 1(H))", "value": "Significantly fewer"},
      {"measurement": "KLRG1+CD3+ T-cells in peritoneal cavity", "setting": "[3]; 6 weeks HFD, prophylactic, vs HFD control (FIG. 1(I))", "value": "Significantly fewer"},
      {"measurement": "macrophages within the peritoneal cavity", "setting": "[3]; 6 weeks HFD, prophylactic, vs PBS (FIG. 1(J)), back to levels of chow-fed mice", "value": "significant reduction"},
      {"measurement": "absolute numbers of macrophages in the VAT", "setting": "[3]; HFD-fed mice, model (6 or 12 weeks) not specified", "value": "did not influence"},
      {"measurement": "amount of IL-6 secreted", "setting": "[4]", "value": "significant reduction"},
      {"measurement": "amount of TNFalpha secreted", "setting": "[4]", "value": "significant reduction"},
      {"measurement": "glucose tolerance", "setting": "[5]; 8 or 12 weeks of diet, therapeutic (FIG. 5(D))", "value": "no effect"},
      {"measurement": "weight of the mouse", "setting": "[5]; 12 weeks HFD, therapeutic (FIG. 5(C))", "value": "no effect"},
      {"measurement": "body weight", "setting": "[6]; 6 weeks HFD, prophylactic mini pump, vs PBS (FIG. 5(A))", "value": "unaffected"},
      {"measurement": "fasting glucose tolerance or insulin resistance", "setting": "[6]; week 3 or 6 of HFD, prophylactic, vs PBS (FIG. 5(B))", "value": "no effect"},
      {"measurement": "number of pancreatic islets", "setting": "[7]; vs PBS (FIG. 1(C))", "value": "no effect"},
      {"measurement": "individual area of pancreatic islets", "setting": "[7]; vs PBS (FIG. 1(D))", "value": "significantly reduced"}
    ]}
  ]
}
